The test system of one test is pSRC. Put plainly: Western blot of pSRC in pig articular chondrocytes. To be noted: pig articular chondrocytes, OSM, 4 and 24 hours. In kind it is cell-based. The protocol:
For standard western blot, treated and non-treated cells were lysed in RIPA Lysis and Extraction Buffer (Pierce, Rockford, IL) containing protease inhibitors (Pierce) followed by sonication with a 15-second pulse at a power output of 2 using the VirSonic 100 (SP Industries Company, Warminster, PA). Protein concentrations were determined by BCA protein assay (Pierce). Proteins were resolved with SDS-PAGE utilizing 4-15% Mini-PROTEAN TGX Precast Gels and transferred to Trans-Blot Turbo Transfer Packs with a 0.2-μm pore-size nitrocellulose membrane. The SDS-PAGE running buffer, 4-15% Mini-PROTEAN TGX Precast Gels, Trans-Blot Turbo Transfer Packs with a 0.2-μm pore-size nitrocellulose membrane was purchased from Biorad (Hercules, CA). Nitrocellulose membranes were blocked in 5% nonfat milk in 0.05% (v/v) Tween 20 (PBST) (Corning, Manassas, VA). Membranes were then incubated with primary antibodies p-gp130 Y814 (Evseenko lab, AbClonal), p-AKT (cat #4060, Cell Signaling), p-ERK 1/2 (cat #9106, Cell Signaling), p-Y416-SRC (cat #1246F, Novus Biologicals), p-gp130 (cat #1453R, Bioss USA) and p-NFκBp65 (cat #8242, Cell Signaling), and/or YAP1 (cat #4912, Cell Signaling). Histone H3 (cat #9515, Cell Signaling) was used as loading control. After washing in PBS containing 0.05% (v/v) Tween 20 (PBST), membranes were incubated with rabbit (cat #31460, Thermo Scientific) or mouse IgG-HRP (cat #31430, Thermo Scientific) secondary antibodies. After washing, membranes were developed with the Clarity Western ECL Blotting Substrate (Hercules, CA). Quantification of blots was performed using ImageJ 1.44 followed by Prism9 for analysis.
The studies delineate that gp130 Y814 regulates SRC downstream signaling; since SRC is known to associate with gp130, it was hypothesized that gp130 and SRC are capable of physically interacting on Y814 and hindering this interaction will prevent SRC from signaling. In order to impede this interaction, experiments were performed using an innovative peptide library screen with short and overlapping peptides mimicking the motif of gp130 around Y814 that were individually tested for pSRC downregulation; these peptides ranged from 4-15 amino acids. The peptides contained a protein sequence stretch of consecutive amino acids surrounding gp130 Y814 residue. To test their efficacy, pig articular chondrocytes were stimulated with or without OSM in presence or absence of the peptides followed by co-immunoprecipitation to determine interaction and western blot detecting pSRC activity. […] Due to sequence specificity, the peptide is capable of discriminating among other gp130 regions serving as a competitive inhibitor.
On the technique in general: In western blotting, separated proteins are transferred to a membrane and probed.

Test [1] relates to rat medial meniscal tear model. The test is described as follows: Rat medial meniscal tear model of osteoarthritis. In kind it is in vivo. To be noted: 6 weeks post-surgery. As to the method: Immunohistochemistry. Histological staining for was performed on wild type (WT) mice, F814 mice and all mice that underwent destabilization of the medial meniscus (DMM). Six weeks after surgery, mice were sacrificed and joints were fixed in 10% formalin, decalcified in 10% EDTA and embedded in paraffin. For rat model, 6 weeks after partial medial meniscectomy (PMM), rats were sacrificed and joints were fixed in 10% formalin, decalcified in 10% EDTA and embedded in paraffin. A total of three 8 μm thick sections were made at a 200 μm interval by coronal sectioning. For canine model, 4 and 16 weeks after medial meniscal release (MMR), dogs were sacrificed and joints were fixed in 10% formalin, decalcified in 10% EDTA and embedded in paraffin. No animals were excluded from analysis. A microtome (Leica) was used to cut 5-μm sections for joints. H&E staining was performed to assess morphology. Safranin O/Fast Green staining, immunohistochemistry for proteolytic enzymes and Osteoarthritis Research Society International (OARSI) scoring was performed as described (41, 42). For OARSI scoring, observers performing the analysis were blinded as whether the slides were from treated or control animals. The stained samples were visually observed using LSCM (Zeiss LSM710, Carl Zeiss, Germany).
Rat model of osteoarthritis. All experiments were conducted ethically. […]

Test [2] concerns cleaved ACAN and COL2 neoepitopes. Put plainly: Neoepitope assay on pig articular cartilage explants stimulated with OSM. In kind it is cell-based. To be noted: 72 hours, normalized to wet weight. As to the method:
Neoepitope analysis. WT and F814 mouse articular cartilage explants were treated with or without OSM (10 ng/mL). Pig articular cartilage explants were stimulated with or without OSM (10 ng/mL) and treated with or without peptide QQpYF (100 μg/mL or 300 μg/mL). For R805 treatment, pig articular cartilage explants were stimulated with or without OSM (10 ng/mL) and treated with or without R805 (0.01, 0.1, 1 or 10 μM). The explants were then digested for 2 hr at 37° C. with 0.01 units chondroitinase ABC (Sigma Aldrich, St. Louis, MO). Samples were then dialyzed with ultrapure water for 24 hr at 4° C., freeze dried, dissolved in RIPA Lysis and Extraction Buffer (Pierce, IL) containing protease inhibitors (Pierce) followed by sonication. Proteins were separated and analyzed by Western blot using primary antibodies against aggrecan (cat #NB100-74350, Novus Biologicals,) and collagen II neoepitopes (cat #50-1035, Ibex). Wet weight of explants was used as loading control.

Molecules are shown by their SMILES. “Also recorded” adds a separate entry of the source.

Consider `Cc1ccc(-c2csc(NC(=O)c3ccccn3)n2)cc1` [Peptide R805], for which the “protein levels of pSRC after OSM stimulation” value in the test with pSRC is recorded as “markedly suppressed; also recorded: prevents pro-inflammatory signaling in OSM-stimulated pig articular chondrocytes”. Besides, in test [1] (femoral condyle), the “cartilage thickness and stiffness (indentation mapping)” value is “maintained thickness and reduced stiffness in rat cartilage”. The “cartilage degeneration (Safranin O histology)” value in test [1] (weekly intra-articular injection) was “dramatically reduces the appearance of OA in rat and canine models; also recorded: prominent protective effects; also recorded: reduces cartilage degeneration”. In addition, the “matrix degeneration: levels of cleaved ACAN and COL2 neoepitopes” value in test [2] was “able to decrease; also recorded: protective effect on OSM-induced cartilage degeneration in vitro”.

(Values after patent publication US20240182526A1, “COMPOSITIONS AND METHODS FOR MODULTING INFLAMMATORY AND DEGENERATIVE DISORDER” (University of Southern California, priority 2021, published 2024).)
